The values below come from US5215769A, “Calcium fortified dressing salad product” (The Procter & Gamble Company, priority 1992, dated 1993).

One series can be described thus: physchem. From the text:
The exact method for determining this is described hereinafter.
The method of solubility used to determine the data in Table I, is described in the Analytical Methods section below.

Series [1] can be described thus: Bioavailability of calcium citrate malate (statement). The settings on record: even under neutral conditions.

Usually solubility stands for the dissolved amount per volume that the medium holds.

In the case of `O=C(O)CC(O)C(=O)O` (racemic) [calcium malate], the solubility in the series “physchem” was 660 mg/mL.
For calcium citrate malate, in series [1], the “bioavailability” value was “bioavailable”.
